Experiments:
[1] = molecular target: T1, phosphor-EGFR in H1975(L585R/T790M) mutant EGFR expressing cells (Homo sapiens, UniProt P00533, L858R/T790M); assay: H1975 pEGFR MSD cellular assay; assay type: cell-based; conditions: NCI-H1975 cells, serum starved, 1 hour compound incubation, pEGFR Tyr1068 MSD; read-out: HI975 pEGFR EC50
T1 construct: host or cells: NCI-H1975
Outline: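 Phospho-EGFR read by MSD electrochemiluminescence: capture with anti-pEGFR antibody (overnight, 4° C), detection with SULFO-TAG anti-total EGFR (1 hour, room temperature). Before lysis, H1975 cells starved of serum overnight got compound for 1 hour at 37° C, 0.5% DMSO final. EC50 via four-parameter logistic regression of percent inhibition.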

EGFR T790M L858R = molecular target: T2, EGFR T790M L858R (Homo sapiens, UniProt P00533, L858R/T790M); assay: EGFR T790M L858R biochemical assay (Caliper mobility shift); conditions: 5 μM ATP; apparent Ki (Morrison fit) converted by Cheng-Prusoff, Km of ATP 1.3 μM
T2 construct: purchased Life Technologies PV4879
T2 sequence (P00533 25-1210 T790M/L858R): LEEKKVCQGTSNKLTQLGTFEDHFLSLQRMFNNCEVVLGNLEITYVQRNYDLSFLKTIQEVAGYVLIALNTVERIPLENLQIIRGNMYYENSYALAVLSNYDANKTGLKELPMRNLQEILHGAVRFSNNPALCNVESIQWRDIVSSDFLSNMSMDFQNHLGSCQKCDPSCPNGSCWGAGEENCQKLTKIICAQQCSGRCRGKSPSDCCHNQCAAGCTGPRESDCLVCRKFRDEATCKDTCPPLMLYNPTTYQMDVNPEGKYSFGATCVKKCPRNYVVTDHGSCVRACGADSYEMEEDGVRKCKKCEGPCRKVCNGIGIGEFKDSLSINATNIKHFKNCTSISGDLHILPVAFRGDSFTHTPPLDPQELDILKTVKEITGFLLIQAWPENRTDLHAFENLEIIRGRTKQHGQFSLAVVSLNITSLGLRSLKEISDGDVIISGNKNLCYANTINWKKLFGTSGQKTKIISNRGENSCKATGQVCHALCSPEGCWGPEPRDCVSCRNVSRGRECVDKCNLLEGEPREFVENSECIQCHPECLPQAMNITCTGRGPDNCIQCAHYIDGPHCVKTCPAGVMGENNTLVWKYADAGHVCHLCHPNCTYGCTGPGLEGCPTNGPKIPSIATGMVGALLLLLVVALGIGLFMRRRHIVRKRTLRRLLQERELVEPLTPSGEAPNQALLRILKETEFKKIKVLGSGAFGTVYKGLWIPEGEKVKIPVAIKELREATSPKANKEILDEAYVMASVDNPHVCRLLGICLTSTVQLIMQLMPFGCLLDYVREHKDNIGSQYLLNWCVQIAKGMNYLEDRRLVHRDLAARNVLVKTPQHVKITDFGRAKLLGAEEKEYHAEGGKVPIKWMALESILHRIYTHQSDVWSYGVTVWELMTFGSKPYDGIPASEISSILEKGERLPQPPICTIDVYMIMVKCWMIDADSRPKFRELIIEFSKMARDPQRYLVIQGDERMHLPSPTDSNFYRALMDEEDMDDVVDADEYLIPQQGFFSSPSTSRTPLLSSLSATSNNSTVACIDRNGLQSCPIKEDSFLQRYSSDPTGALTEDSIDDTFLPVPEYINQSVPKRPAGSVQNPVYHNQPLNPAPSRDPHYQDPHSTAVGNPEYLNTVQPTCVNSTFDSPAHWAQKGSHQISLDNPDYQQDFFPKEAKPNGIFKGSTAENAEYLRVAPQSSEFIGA
Outline: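 Caliper mobility-shift read-out, electrophoretic separation of substrate from product, after a 30-minute kinase reaction at 22 °C. EDTA at 80 mM terminates each reaction.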

EGFR del746-750 T790M = molecular target: T3, EGFR del746-750 T790M (Homo sapiens, UniProt P00533, DEL746-750/T790M); assay: EGFR del746-750 T790M biochemical assay (Caliper mobility shift); conditions: 5 μM ATP; apparent Ki (Morrison fit) converted by Cheng-Prusoff, Km of ATP 2.1 μM; read-out: EGFR(T790M/d746-750) Ki
T3 construct: purchased Carna Biosciences 08-528
T3 sequence (P00533 with tags, fused parts or gaps DEL746-750/T790M limits assumed): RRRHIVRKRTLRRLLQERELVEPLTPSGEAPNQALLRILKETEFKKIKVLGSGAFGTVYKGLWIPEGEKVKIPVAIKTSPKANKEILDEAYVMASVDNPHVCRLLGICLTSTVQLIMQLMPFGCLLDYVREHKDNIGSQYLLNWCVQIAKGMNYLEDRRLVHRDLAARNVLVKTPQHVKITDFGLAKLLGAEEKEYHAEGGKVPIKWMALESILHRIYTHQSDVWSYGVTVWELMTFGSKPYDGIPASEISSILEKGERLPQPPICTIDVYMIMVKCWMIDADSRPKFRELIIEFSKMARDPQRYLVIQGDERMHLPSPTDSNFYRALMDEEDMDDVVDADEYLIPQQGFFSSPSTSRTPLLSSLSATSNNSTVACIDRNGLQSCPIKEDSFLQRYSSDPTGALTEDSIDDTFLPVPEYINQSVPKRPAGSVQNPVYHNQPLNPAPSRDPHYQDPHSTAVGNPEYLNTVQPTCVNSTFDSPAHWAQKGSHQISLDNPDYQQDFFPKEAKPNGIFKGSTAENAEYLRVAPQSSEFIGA
Outline: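 Caliper mobility-shift read-out, with product electrophoretically resolved from substrate and measured. Reactions were quenched with 80 mM EDTA after 30 min at 22 °C.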

[2] = test system: H1975 (EGFR T790M/L858R) cell proliferation; assay: H1975 proliferation assay (Cell Titer-Glo); assay type: cell-based; conditions: Homo sapiens, NCI-H1975, 72 h, NCI-H1975 cells, 72 hour incubation, read-out: H1975 antiproliferative EC50
Experimental: H1975 Proliferation Assays
All cell culture reagents were purchased from Invitrogen/Gibco. Cells are cultured at 37° C. at 5% CO2 and split as recommended by ATCC.

T1 sequence (P00533 25-1210 T790M/L858R): as the sequence (P00533 25-1210 T790M/L858R) above

EC50 [1]	Ki (EGFR T790M L858R)	Ki (EGFR del746-750 T790M)	EC50 [2]	Structure (SMILES)
27.6 nM	0.6 nM	0.5 nM	266 nM	CC(O)C1CN(c2nn(C(C)C)c3cc(Nc4ccnc(-c5cnn(S(=O)(=O)C6CC6)c5)n4)ncc23)C1 (centres unmarked) [Example 113, 1-(1-(6-(2-(1-(Cyclopropylsulfonyl)-1H-pyrazol-4-yl)pyrimidin-4-ylamino)-1-isopropyl-1H-pyrazolo[4,3-c]pyridin-3-yl)azetidin-3-yl)ethanol]
5.6 nM	0.8 nM	0.7 nM	190 nM	CC(C)n1nc(N2CC[C@@H](O)C2)c2cnc(Nc3ccnc(-c4cnn(S(=O)(=O)C5CC5)c4)n3)cc21 [Example 114, (R)-1-(6-(2-(1-(Cyclopropylsulfonyl)-1H-pyrazol-4-yl)pyrimidin-4-ylamino)-1-isopropyl-1H-pyrazolo[4,3-c]pyridin-3-yl)pyrrolidin-3-ol]
54.9 nM	1.3 nM	1.1 nM	432 nM	CC(C)n1nc(N2CC(N3CCOCC3)C2)c2cnc(Nc3ccnc(-c4cnn(S(=O)(=O)C5CC5)c4)n3)cc21 [Example 117, N-(2-(1-(Cyclopropylsulfonyl)-1H-pyrazol-4-yl)pyrimidin-4-yl)-1-isopropyl-3-(3-morpholinoazetidin-1-yl)-1H-pyrazolo[4,3-c]pyridin-6-amine]
134 nM	1.4 nM	1.1 nM	1010 nM	CCN1CCN(c2nn(C(C)C)c3cc(Nc4ccnc(-c5cnn(S(=O)(=O)C6CC6)c5)n4)ncc23)CC1 [Example 118, N-(2-(1-(Cyclopropylsulfonyl)-1H-pyrazol-4-yl)pyrimidin-4-yl)-3-(4-ethylpiperazin-1-yl)-1-isopropyl-1H-pyrazolo[4,3-c]pyridin-6-amine]
19.6 nM	0.8 nM	0.7 nM	184 nM	CC(C)n1nc(N2CC(CC#N)C2)c2cnc(Nc3ccnc(-c4cnn(S(=O)(=O)C5CC5)c4)n3)cc21 [Example 121, 2-(1-(6-(2-(1-(Cyclopropylsulfonyl)-1H-pyrazol-4-yl)pyrimidin-4-ylamino)-1-isopropyl-1H-pyrazolo[4,3-c]pyridin-3-yl)azetidin-3-yl)acetonitrile]
4.4 nM	0.6 nM	0.6 nM	201 nM	CC(C)n1nc(N2CC[C@H](O)C2)c2cnc(Nc3ccnc(-c4cnn(S(=O)(=O)C5CC5)c4)n3)cc21 [Example 123, (S)-1-(6-(2-(1-(Cyclopropylsulfonyl)-1H-pyrazol-4-yl)pyrimidin-4-ylamino)-1-isopropyl-1H-pyrazolo[4,3-c]pyridin-3-yl)pyrrolidin-3-ol]
248 nM	0.7 nM	0.7 nM	660 nM	CC(C)n1nc(N2CC(O)(CO)C2)c2cnc(Nc3ccnc(-c4cnn(S(=O)(=O)C5CC5)c4)n3)cc21 [Example 124, 1-(6-(2-(1-(Cyclopropylsulfonyl)-1H-pyrazol-4-yl)pyrimidin-4-ylamino)-1-isopropyl-1H-pyrazolo[4,3-c]pyridin-3-yl)-3-(hydroxymethyl)azetidin-3-ol]
1430 nM	4.9 nM	14.6 nM	> 10000 nM	CC(C)n1nc(N2CCO[C@H](CO)C2)c2cnc(Nc3ccnc(N4CC[C@H](O)[C@H](F)C4)n3)cc21 [Example 132, cis-3-Fluoro-1-(4-(3-((S)-2-(hydroxymethyl)morpholino)-1-isopropyl-1H-pyrazolo[4,3-c]pyridin-6-ylamino)pyrimidin-2-yl)piperidin-4-ol]
715 nM	10.1 nM	27 nM	1100 nM	CC(C)n1nc(N2CC(C#N)CC2=O)c2cnc(Nc3ccnc(N4CCC(C)(O)CC4)n3)cc21 (centres unmarked) [Example 137, 1-(6-(2-(4-Hydroxy-4-methylpiperidin-1-yl)pyrimidin-4-ylamino)-1-isopropyl-1H-pyrazolo[4,3-c]pyridin-3-yl)-5-oxopyrrolidine-3-carbonitrile]

The next lines start with the compound.

Structure (SMILES)	EC50 [1]	Ki (EGFR T790M L858R)	Ki (EGFR del746-750 T790M)	EC50 [2]
CC1CN(c2nn(C(C)C)c3cc(Nc4ccnc(-c5cnn(S(=O)(=O)C6CC6)c5)n4)ncc23)C(=O)N1 (centres unmarked) [Example 108, 1-(6-(2-(1-(Cyclopropylsulfonyl)-1H-pyrazol-4-yl)pyrimidin-4-ylamino)-1-isopropyl-1H-pyrazolo[4,3-c]pyridin-3-yl)-4-methylimidazolidin-2-one]	113 nM	1.9 nM	1.7 nM	377 nM
CC(Nc1nn(C(C)C)c2cc(Nc3ccnc(-c4cnn(S(=O)(=O)C5CC5)c4)n3)ncc12)C(N)=O (centres unmarked) [Example 109, 2-(6-(2-(1-(Cyclopropylsulfonyl)-1H-pyrazol-4-yl)pyrimidin-4-ylamino)-1-isopropyl-1H-pyrazolo[4,3-c]pyridin-3-ylamino)propanamide]	788 nM	1.8 nM	1.3 nM	4620 nM
CC(C)n1nc(N2CC[S+]([O-])CC2)c2cnc(Nc3ccnc(-c4cnn(S(=O)(=O)C5CC5)c4)n3)cc21 [Example 110, 4-(6-((2-(1-(Cyclopropylsulfonyl)-1H-pyrazol-4-yl)pyrimidin-4-yl)amino)-1-isopropyl-1H-pyrazolo[4,3-c]pyridin-3-yl)thiomorpholine 1-oxide]	162 nM	1.7 nM	1.1 nM	835 nM
CC(C)n1nc(N2CCS(=N)(=O)CC2)c2cnc(Nc3ccnc(-c4cnn(S(=O)(=O)C5CC5)c4)n3)cc21 [Example 111, 4-(6-((2-(1-(Cyclopropylsulfonyl)-1H-pyrazol-4-yl)pyrimidin-4-yl)amino)-1-isopropyl-1H-pyrazolo[4,3-c]pyridin-3-yl)-1-iminothiomorpholine 1-oxide]	560 nM	1.7 nM	1 nM	949 nM
CC(C)n1nc(N2CCC3(CCNC3=O)C2)c2cnc(Nc3ccnc(-c4cnn(S(=O)(=O)C5CC5)c4)n3)cc21 (centres unmarked) [Example 112, 7-(6-((2-(1-(Cyclopropylsulfonyl)-1H-pyrazol-4-yl)pyrimidin-4-yl)amino)-1-isopropyl-1H-pyrazolo[4,3-c]pyridin-3-yl)-2,7-diazaspiro[4.4]nonan-1-one]	62.6 nM	1.1 nM	1 nM	740 nM
CC(C)n1nc(N2CCC3(CNC(=O)C3)C2)c2cnc(Nc3ccnc(-c4cnn(S(=O)(=O)C5CC5)c4)n3)cc21 (centres unmarked) [Example 115, 7-(6-((2-(1-(Cyclopropylsulfonyl)-1H-pyrazol-4-yl)pyrimidin-4-yl)amino)-1-isopropyl-1H-pyrazolo[4,3-c]pyridin-3-yl)-2,7-diazaspiro[4.4]nonan-3-one]	221 nM	1.1 nM	0.9 nM	1790 nM
CC(C)n1nc(NC(=O)C(C)(C)O)c2cnc(Nc3ccnc(-c4cnn(S(=O)(=O)C5CC5)c4)n3)cc21 [Example 116, N-(6-(2-(1-(Cyclopropylsulfonyl)-1H-pyrazol-4-yl)pyrimidin-4-ylamino)-1-isopropyl-1H-pyrazolo[4,3-c]pyridin-3-yl)-2-hydroxy-2-methylpropanamide]	629 nM	2.6 nM	2 nM	2080 nM
CC(C)n1nc(N2CCC3(COC3)C2)c2cnc(Nc3ccnc(-c4cnn(S(=O)(=O)C5CC5)c4)n3)cc21 [Example 120, N-(2-(1-(Cyclopropylsulfonyl)-1H-pyrazol-4-yl)pyrimidin-4-yl)-1-isopropyl-3-(2-oxa-6-azaspiro[3.4]octan-6-yl)-1H-pyrazolo[4,3-c]pyridin-6-amine]	32.8 nM	1.4 nM	1.3 nM	431 nM
CC(C)n1nc(N2CC(C)(CO)C2)c2cnc(Nc3ccnc(-c4cnn(S(=O)(=O)C5CC5)c4)n3)cc21 [Example 122, (1-(6-(2-(1-(Cyclopropylsulfonyl)-1H-pyrazol-4-yl)pyrimidin-4-ylamino)-1-isopropyl-1H-pyrazolo[4,3-c]pyridin-3-yl)-3-methylazetidin-3-yl)methanol]	87.8 nM	1.2 nM	1 nM	620 nM
CC(C)n1nc(NCCS(C)(=N)=O)c2cnc(Nc3ccnc(-c4cnn(S(=O)(=O)C5CC5)c4)n3)cc21 (centres unmarked) [Example 125, N^6-(2-(1-(Cyclopropylsulfonyl)-1H-pyrazol-4-yl)pyrimidin-4-yl)-1-isopropyl-N^3-(2-(S-methylsulfonimidoyl)ethyl)-1H-pyrazolo[4,3-c]pyridine-3.6-diamine]	2840 nM	1.1 nM	0.8 nM	> 10000 nM
CC(C)n1nc(N2CC3(CN(CC(F)(F)F)C3)C2)c2cnc(Nc3ccnc(-c4cnn(S(=O)(=O)C5CC5)c4)n3)cc21 [Example 126, N-(2-(1-(Cyclopropylsulfonyl)-1H-pyrazol-4-yl)pyrimidin-4-yl)-1-isopropyl-3-(6-(2,2,2-trifluoroethyl)-2,6-diazaspiro[3.3]heptan-2-yl)-1H-pyrazolo[4,3-c]pyridin-6-amine]	80.1 nM	5.3 nM	4.6 nM	1140 nM
